Data on 1 compound can be found in US8198273B2, “Compounds and methods for kinase modulation, and indications therefor” (Plexxikon Inc., priority 2009, dated 2012).

Where only a bound is given, the exact number is not on record here.

The test system of series [1] is SW620 colon adenocarcinoma cells (wild-type B-RAF). In words: SW620 cell growth inhibition (ATPlite). Format: cell-based. Particulars: Homo sapiens, SW-620, 72 h; SW620, 3 days incubation. A digest of the protocol: (§1)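 Cells plated overnight, then exposed 3 days at 37° C to 8-point 1:3 compound dilutions topping at 10 μM final. Viability read as ATPlite luminescence, proportional to cell number; IC50 from luminescence versus concentration.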

Series [2] relates to A375 melanoma cells (B-Raf V600E). In words: A375 cell growth inhibition (ATPlite). Conditions: Homo sapiens, A-375, 72 h; A375, 3 days incubation. It counts as cell-based. A digest of the protocol: as §1
The target in series [3] is CYP2C9 (Homo sapiens, UniProt P11712). In words: CYP2C9 inhibition (fluorescent substrate). It counts as in vitro ADME. Particulars: CYP2C9, MFC substrate; read-out: Cyp IC50 2C9. A digest of the protocol: (§2)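 IC50 values come from plotting product fluorescence against compound concentration; inhibition lowers formation of the fluorescent metabolite. Ten-point twofold dilutions in co-factor mix were held 10 minutes at 37 °C before the enzyme reaction, also run at 37 °C.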

In series [4] the target is B-Raf (Homo sapiens, UniProt P15056). The series can be described thus: B-Raf biochemical kinase inhibition (AlphaScreen, biotin-MEK1 substrate). Conditions: 100 μM ATP. A digest of the protocol:
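IC50 derived from AlphaScreen signal plotted against compound concentration. Final ATP 100 μM; 3 h incubation at room temperature. Eight-point 3-fold dilution series prepared from a 0.1 mM DMSO stock.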

Series [5] addresses CYP2C19 (Homo sapiens, UniProt P33261). The series can be described thus: CYP2C19 inhibition (fluorescent substrate). It counts as in vitro ADME. Conditions: CYP2C19, CEC substrate; read-out: Cyp IC50 2C19. Put shortly: as §2

Sequence of CYP2C19 (P33261 whole entry): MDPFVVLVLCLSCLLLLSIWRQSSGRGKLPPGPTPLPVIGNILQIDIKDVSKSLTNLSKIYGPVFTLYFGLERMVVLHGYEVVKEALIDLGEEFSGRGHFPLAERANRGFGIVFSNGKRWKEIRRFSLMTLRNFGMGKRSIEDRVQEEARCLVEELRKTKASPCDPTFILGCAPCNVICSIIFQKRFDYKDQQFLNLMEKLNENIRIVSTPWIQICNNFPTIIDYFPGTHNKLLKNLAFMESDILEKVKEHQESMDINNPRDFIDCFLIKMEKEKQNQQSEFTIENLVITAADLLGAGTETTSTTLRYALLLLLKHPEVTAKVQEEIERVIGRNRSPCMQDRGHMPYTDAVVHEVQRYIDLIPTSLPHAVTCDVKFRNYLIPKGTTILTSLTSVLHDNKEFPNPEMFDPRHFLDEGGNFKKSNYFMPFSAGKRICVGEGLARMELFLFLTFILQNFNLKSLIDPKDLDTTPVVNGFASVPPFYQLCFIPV
Sequence of CYP2C9 (P11712 whole entry): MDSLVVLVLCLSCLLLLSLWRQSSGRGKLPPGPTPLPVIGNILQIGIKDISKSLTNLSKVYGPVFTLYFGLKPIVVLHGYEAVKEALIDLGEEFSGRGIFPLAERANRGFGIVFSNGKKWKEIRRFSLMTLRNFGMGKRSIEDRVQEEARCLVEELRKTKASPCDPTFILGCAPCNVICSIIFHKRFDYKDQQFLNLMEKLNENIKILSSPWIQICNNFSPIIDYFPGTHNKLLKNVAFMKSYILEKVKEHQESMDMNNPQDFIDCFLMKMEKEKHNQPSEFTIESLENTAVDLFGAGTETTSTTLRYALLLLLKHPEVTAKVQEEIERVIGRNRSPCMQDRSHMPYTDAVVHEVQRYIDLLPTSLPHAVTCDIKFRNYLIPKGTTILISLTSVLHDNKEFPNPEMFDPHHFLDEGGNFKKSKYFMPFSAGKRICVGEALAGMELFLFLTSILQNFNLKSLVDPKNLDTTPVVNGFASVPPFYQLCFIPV
Sequence of B-Raf (P15056 whole entry): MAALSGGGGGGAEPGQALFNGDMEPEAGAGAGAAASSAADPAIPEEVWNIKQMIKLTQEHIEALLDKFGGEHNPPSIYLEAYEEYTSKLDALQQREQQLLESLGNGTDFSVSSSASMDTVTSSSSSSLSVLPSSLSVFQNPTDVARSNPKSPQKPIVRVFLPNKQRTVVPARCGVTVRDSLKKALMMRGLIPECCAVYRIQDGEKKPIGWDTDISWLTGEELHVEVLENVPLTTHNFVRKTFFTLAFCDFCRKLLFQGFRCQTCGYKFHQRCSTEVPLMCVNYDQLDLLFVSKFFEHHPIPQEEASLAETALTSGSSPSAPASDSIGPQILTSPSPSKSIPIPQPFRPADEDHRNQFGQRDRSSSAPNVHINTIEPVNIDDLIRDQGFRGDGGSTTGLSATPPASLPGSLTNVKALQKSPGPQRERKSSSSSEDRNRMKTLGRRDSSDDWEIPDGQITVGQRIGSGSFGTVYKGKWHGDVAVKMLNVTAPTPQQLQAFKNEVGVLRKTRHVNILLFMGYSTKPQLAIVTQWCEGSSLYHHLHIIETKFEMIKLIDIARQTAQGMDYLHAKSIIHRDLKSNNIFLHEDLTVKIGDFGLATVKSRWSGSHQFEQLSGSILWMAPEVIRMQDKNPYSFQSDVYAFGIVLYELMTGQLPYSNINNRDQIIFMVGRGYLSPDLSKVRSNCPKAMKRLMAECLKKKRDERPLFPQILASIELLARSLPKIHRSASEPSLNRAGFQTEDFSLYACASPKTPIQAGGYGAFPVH

Regarding `CCCS(=O)(=O)Nc1ccc(F)c(C(=O)c2c[nH]c3ncc(-c4ccc(N(C)C)nc4)cc23)c1F` [P-2229, Propane-1-sulfonic acid {3-[5-(6-dimethylamino-pyridin-3-yl)-1H-pyrrolo[2,3-b]pyridine-3-carbonyl]-2,4-difluoro-phenyl}-amide], the IC50 (in general, the concentration at which inhibition is half-maximal) in series [1] is over 10 µM; in series [2], under 100 nM; in series [3], 5 to 10 µM; in series [4], under 100 nM; in series [5], over 10 µM.
